#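 Tested at 5 concentrations; 48 h exposure; 96-well plates; endpoints linearly interpolated, else capped at highest concentration. GI50 is the concentration that inhibits growth by half.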 Active and inactive are the calls of the source. Rule as the data show it: active = GI50 up to about 1.1 µM and inactive = higher.
# What was measured:
# Experiment in all cases: growth of human tumour cells (NCI), 48 h
# MOLT-4 = tested on: MOLT-4
# HCC 2998 = tested on: HCC 2998
# HCT-116 = tested on: HCT-116
# A549 = tested on: A549
# MDA-MB-435 = tested on: MDA-MB-435
# SW-620 = tested on: SW-620
# PC-3 = tested on: PC-3
# UACC-257 = tested on: UACC-257
# SK-OV-3 = tested on: SK-OV-3
# SNB-19 = tested on: SNB-19
# SF-295 = tested on: SF-295
# A498 = tested on: A498
# OVCAR-8 = tested on: OVCAR-8
# T47D = tested on: T47D
# M14 = tested on: M14
# RPMI-8226 = tested on: RPMI-8226
# HOP-62 = tested on: HOP-62
# SR = tested on: SR
# NCI-H460 = tested on: NCI-H460
# 786-0 = tested on: 786-0
# COLO 205 = tested on: COLO 205
# HCT-15 = tested on: HCT-15
# ACHN = tested on: ACHN
# RXF 393 = tested on: RXF 393
# MDA-N = tested on: MDA-N
# SNB-75 = tested on: SNB-75
# K562 = tested on: K562
# NCI/ADR-RES = tested on: NCI/ADR-RES
# Malme-3M = tested on: Malme-3M
# SK-MEL-2 = tested on: SK-MEL-2
# CCRF-CEM = tested on: CCRF-CEM
# BT-549 = tested on: BT-549
# MDA-MB-231 = tested on: MDA-MB-231
# OVCAR-3 = tested on: OVCAR-3
# OVCAR-5 = tested on: OVCAR-5
# SK-MEL-28 = tested on: SK-MEL-28
# IGROV-1 = tested on: IGROV-1
# HL-60 = tested on: HL-60
# U-251 = tested on: U-251
# TK-10 = tested on: TK-10
# HT-29 = tested on: HT-29
# KM12 = tested on: KM12
# SN12C = tested on: SN12C
# EKVX = tested on: EKVX
# SF-268 = tested on: SF-268
# UACC-62 = tested on: UACC-62
# CAKI-1 = tested on: CAKI-1
# UO-31 = tested on: UO-31
# SK-MEL-5 = tested on: SK-MEL-5
# SF-539 = tested on: SF-539
# MCF7 = tested on: MCF7
# DU-145 = tested on: DU-145
# Hs-578T = tested on: Hs-578T
# LOX IMVI = tested on: LOX IMVI
# NCI-H522 = tested on: NCI-H522
# OVCAR-4 = tested on: OVCAR-4
# NCI-H23 = tested on: NCI-H23
# NCI-H226 = tested on: NCI-H226
# HOP-92 = tested on: HOP-92
smiles,measurement,setting,value
C/C1=C\CC[C@@]2(C)O[C@@H]2C[C@@H]2[C@H](C/C(C)=C/CC1)OC(=O)C21CC1,GI50,MOLT-4,21.7 µM (inactive)
same,GI50,HCC 2998,> 100 µM (inactive)
same,GI50,HCT-116,35 µM (inactive)
same,GI50,A549,> 100 µM (inactive)
same,GI50,MDA-MB-435,41.5 µM (inactive)
same,GI50,SW-620,60.7 µM (inactive)
same,GI50,PC-3,> 100 µM (inactive)
same,GI50,UACC-257,> 100 µM (inactive)
same,GI50,SK-OV-3,> 100 µM (inactive)
same,GI50,SNB-19,> 100 µM (inactive)
same,GI50,SF-295,> 100 µM (inactive)
same,GI50,A498,> 100 µM (inactive)
same,GI50,OVCAR-8,> 100 µM (inactive)
same,GI50,T47D,> 100 µM (inactive)
same,GI50,M14,> 100 µM (inactive)
same,GI50,RPMI-8226,12.1 µM (inactive)
same,GI50,HOP-62,> 100 µM (inactive)
same,GI50,SR,12.7 µM (inactive)
same,GI50,NCI-H460,56.8 µM (inactive)
same,GI50,786-0,74.5 µM (inactive)
same,GI50,COLO 205,> 100 µM (inactive)
same,GI50,HCT-15,27.7 µM
same,GI50,ACHN,50.6 µM (inactive)
same,GI50,RXF 393,> 100 µM (inactive)
same,GI50,MDA-N,91.4 µM (inactive)
same,GI50,SNB-75,> 100 µM (inactive)
same,GI50,K562,21 µM (inactive)
same,GI50,NCI/ADR-RES,> 100 µM (inactive)
same,GI50,Malme-3M,> 100 µM (inactive)
same,GI50,SK-MEL-2,> 100 µM (inactive)
same,GI50,CCRF-CEM,20.6 µM (inactive)
same,GI50,BT-549,44.9 µM (inactive)
same,GI50,MDA-MB-231,> 100 µM (inactive)
same,GI50,OVCAR-3,> 100 µM (inactive)
same,GI50,OVCAR-5,> 100 µM (inactive)
same,GI50,SK-MEL-28,> 100 µM (inactive)
same,GI50,IGROV-1,23.3 µM (inactive)
same,GI50,HL-60,24.2 µM (inactive)
same,GI50,U-251,28.8 µM (inactive)
same,GI50,TK-10,> 100 µM (inactive)
same,GI50,HT-29,> 100 µM (inactive)
same,GI50,KM12,> 100 µM (inactive)
same,GI50,SN12C,60.3 µM (inactive)
same,GI50,EKVX,> 100 µM (inactive)
same,GI50,SF-268,> 100 µM (inactive)
same,GI50,UACC-62,90.8 µM (inactive)
same,GI50,CAKI-1,> 100 µM (inactive)
same,GI50,UO-31,92.3 µM (inactive)
same,GI50,SK-MEL-5,93.5 µM (inactive)
same,GI50,SF-539,> 100 µM (inactive)
same,GI50,MCF7,53.5 µM (inactive)
same,GI50,DU-145,59.7 µM (inactive)
N#Cc1ccccc1OCCOc1ccccc1C#N,GI50,MOLT-4,> 100 µM (inactive)
same,GI50,HCC 2998,> 100 µM (inactive)
same,GI50,HCT-116,> 100 µM (inactive)
same,GI50,A549,> 100 µM (inactive)
same,GI50,MDA-MB-435,> 100 µM (inactive)
same,GI50,SW-620,> 100 µM (inactive)
same,GI50,PC-3,> 100 µM (inactive)
same,GI50,UACC-257,> 100 µM (inactive)
same,GI50,SK-OV-3,> 100 µM (inactive)
same,GI50,SNB-19,> 100 µM (inactive)
same,GI50,SF-295,> 100 µM (inactive)
same,GI50,A498,> 100 µM (inactive)
same,GI50,OVCAR-8,> 100 µM (inactive)
same,GI50,T47D,> 100 µM (inactive)
same,GI50,M14,> 100 µM (inactive)
same,GI50,RPMI-8226,> 100 µM (inactive)
same,GI50,HOP-62,> 100 µM (inactive)
same,GI50,SR,> 100 µM (inactive)
same,GI50,NCI-H460,> 100 µM (inactive)
same,GI50,786-0,> 100 µM (inactive)
same,GI50,Hs-578T,> 100 µM (inactive)
same,GI50,COLO 205,> 100 µM (inactive)
same,GI50,LOX IMVI,> 100 µM (inactive)
same,GI50,HCT-15,> 100 µM
same,GI50,ACHN,> 100 µM (inactive)
same,GI50,NCI-H522,> 100 µM (inactive)
same,GI50,RXF 393,> 100 µM (inactive)
same,GI50,SNB-75,61.9 µM (inactive)
same,GI50,K562,20.3 µM (inactive)
same,GI50,NCI/ADR-RES,> 100 µM (inactive)
same,GI50,Malme-3M,> 100 µM (inactive)
same,GI50,SK-MEL-2,> 100 µM (inactive)
same,GI50,CCRF-CEM,> 100 µM (inactive)
same,GI50,BT-549,> 100 µM (inactive)
same,GI50,MDA-MB-231,> 100 µM (inactive)
same,GI50,OVCAR-3,> 100 µM (inactive)
same,GI50,OVCAR-5,> 100 µM (inactive)
same,GI50,SK-MEL-28,> 100 µM (inactive)
same,GI50,OVCAR-4,> 100 µM (inactive)
same,GI50,IGROV-1,> 100 µM (inactive)
same,GI50,HL-60,> 100 µM (inactive)
same,GI50,U-251,61 µM (inactive)
same,GI50,TK-10,> 100 µM (inactive)
same,GI50,HT-29,> 100 µM (inactive)
same,GI50,KM12,> 100 µM (inactive)
same,GI50,SN12C,> 100 µM (inactive)
same,GI50,EKVX,> 100 µM (inactive)
same,GI50,SF-268,> 100 µM (inactive)
same,GI50,NCI-H23,> 100 µM (inactive)
same,GI50,UACC-62,> 100 µM (inactive)
same,GI50,NCI-H226,> 100 µM (inactive)
same,GI50,CAKI-1,> 100 µM (inactive)
same,GI50,UO-31,> 100 µM (inactive)
same,GI50,SK-MEL-5,> 100 µM (inactive)
same,GI50,SF-539,26.1 µM (inactive)
same,GI50,HOP-92,> 100 µM (inactive)
same,GI50,MCF7,> 100 µM (inactive)
same,GI50,DU-145,> 100 µM (inactive)

# Reference: ChEMBL document CHEMBL1201862, “PubChem BioAssay data set” (2004)
